Each structure is given as a SMILES string. Where “and” joins values, the source holds several entries; their conditions need not be identical. Identical values can stand only once.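 48-hour exposure; five concentrations; linearly interpolated endpoints. Abbreviation: GI50, concentration required for 50% inhibition of growth. Definition used: TGI = concentration required for complete inhibition of growth.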 Bounds are passed on as bounds.

13 compounds from PubChem BioAssay (NCI) can be followed below.

Assay in all cases: DTP human tumour cell line panel, 48 h
Test [1] has as its system TK-10 renal.
Test [2] relates to 786-0 renal.
In test [3] the test system is HL-60(TB) leukemia.
Test [4] has as its system OVCAR-5 ovarian.
For test [5], the system named is IGROV1 ovarian.
Test [6] relates to HOP-92 NSCLC.
In test [7] the test system is HOP-62 NSCLC.
Test [8] relates to SNB-19 CNS.
Test [9] deals with COLO 205 colon.
The subject of test [10] is SK-OV-3 ovarian.

For `NC1CCCCC1.[O]=[Ge].[O]=[Ge].[O]=[Ge][OH].[O]=[Ge][OH]`, the GI50 in [1] and in [2] was over 100 µM each time. The TGI in [1], in test [2], in [3], in test [4], in [5] and in [6] was over 100 µM in each case. The TGI in test [7] and in test [8] was over 100 µM each time.
`CO/C(=N\N=C\c1cccc(Cl)c1)c1ccncc1`: the TGI in test [1], in test [2], in test [3], in test [4], in [6] and in [7] was over 10 µM in each case. In addition, the TGI in test [8] and in [9] was over 10 µM throughout.
`COc1ccc(NC(=O)C(=O)Cc2nc3ccc([N+](=O)[O-])cc3[nH]c2=O)c(OC)c1`: the TGI in [1], in test [2], in test [3], in test [4], in test [5] and in test [6] was over 100 µM in each case. In addition, the TGI in test [10], in test [8] and in test [9] was over 100 µM throughout.
As to `O=C(Nc1ccc(Cl)cc1Cl)C(=O)C(C(=O)c1ccc2ccccc2c1)C1OC(=O)c2ccccc21` (stereo not given), the TGI was 19.5 µM in test [2]; 23.9 µM in test [3]; 19.6 µM in test [4]; 57.7 µM in test [5]; 8.92 µM in test [6]; over 100 µM in test [10]. Besides, the TGI turned out to be 27.8 µM in test [7], 22.1 µM in [8] and 57 µM in test [9].
Take `COC[C@@H](N=CN1CCc2cc(OC)c(OC)cc2[C@@H]1C)C(C)(C)C`: the TGI in test [1], in [2], in test [3], in test [5], in test [6] and in test [10] was over 100 µM each time. Besides, the concentration for total growth inhibition (TGI) in test [7], in test [8] and in [9] was over 100 µM each time.
For the compound `COc1cc(/C=C\c2ccccc2)cc(OC)c1OC`, the TGI in [1] is over 50.3 µM; in test [2], over 52.8 µM; in [3], 6.34 µM; in [4], 47.3 µM; in test [5], over 100 µM; in test [6], 21.8 µM. The TGI was 23.5 µM in test [7], over 77.5 µM in test [8] and over 20.4 µM in test [9].
As for `O=c1[nH]c(=O)n([C@@H]2C[C@H](CO)[C@H](O)C2)cc1/C=C/Br`, the TGI in test [1], in [2], in test [3], in test [4], in test [5] and in test [6] was over 100 µM throughout. Further, the concentration for total growth inhibition (TGI) in test [10], in test [7] and in [8] was over 100 µM each time.
`O=C(c1ccc2ccccc2c1)c1c(C(F)(F)F)n([O-])c2cc(F)c(F)cc2[n+]1=O`: the GI50 in test [1] is 1.76 µM; in [2] it was 1.74 µM; in [3], 1.37 µM; in [4], 2.01 µM; in test [6], 1.84 µM; in [10], 14.5 µM. In addition, the figures for the GI50 in test [7] and in test [8] were 5.02 µM and 2 µM, respectively. The TGI in [1] is 3.41 µM; in [2] it was 3.23 µM; in test [3], 3.55 µM; in test [4] it was 4.4 µM; in [6], 3.46 µM; in test [10] it was 27.9 µM. The TGI was determined as 16.8 µM in [7] and 4.1 µM in test [8].
With `CCCCCCCCCCCCCCN`, the TGI in [1], in [2], in [3], in test [4], in test [5] and in [6] was over 100 µM each time. For the same compound, the TGI in test [10], in [7] and in [9] was over 100 µM each time.
For the compound `CC[C@@]1(O)C[C@H](OC2CC(N(C)C)C(OC3CC(O)C(OC4CCC(=O)C(C)O4)C(C)O3)C(C)O2)c2c(cc3c(c2O)C(=O)c2c(O)cccc2C3=O)[C@H]1C(=O)OC` (stereo not given in full), the TGI is 0.932 µM and 0.373 µM in test [1]; 0.25 µM and 0.476 µM in test [2]; 0.0613 µM and 0.177 µM in test [3]; 0.22 µM and 0.457 µM in test [4]; 0.129 µM and 0.161 µM in [6]; 1.31 µM and 5.14 µM in [10]. The TGI in [7] was 0.139 µM and 0.504 µM; in test [8] it was 1.98 µM and 2.21 µM. In addition, the 50% growth inhibitory concentration (GI50) in test [3] is 0.00866 µM and 0.0039 µM.
On to `Cn1nc(-c2ccccc2)c(C(=O)/C=C/c2ccc(F)cc2)c(N2CCCCC2)c1=O`, for which the TGI in test [1] was found to be 69.9 µM; in test [2], 18 µM; in test [3], 3.28 µM; in test [5], 38.2 µM; in test [6], 20 µM; in [10], 70.1 µM. In addition, the TGI in [8] worked out at 55.4 µM; in test [9], 14.1 µM.
In the case of `O=C(Nc1cccc([N+](=O)[O-])c1)C(=O)C(C(=O)c1ccccc1-c1ccccc1)C1OC(=O)c2ccccc21` (stereo not given), the TGI in [1] came out at 61.5 µM; in [2] it was 38.9 µM; in test [3], 56.5 µM; in test [4], 39.5 µM; in test [5] it was 98.8 µM; in [6] it was 32.8 µM. Moreover, the concentration for total growth inhibition (TGI) in [10] was over 100 µM; in test [7], 33.9 µM; in test [9], 38.1 µM.
On to `O=C(Nc1ccc(F)cc1)c1ccc(NC2=C(Cl)C(=O)N(Cc3ccccc3)C2=O)cc1`, for which the GI50 in test [2] was 10.5 µM; in [3] it was 2.31 µM; in [4], 9.15 µM; in [5] it was 1.06 µM; in [6], 5.23 µM; in test [10], 24 µM. Besides, the GI50 in test [8] was 10.8 µM; in test [9] it was 22.1 µM. The TGI in test [2] stood at 22.9 µM; in [3], 7.35 µM; in [4], 27.1 µM; in test [5] it was 3.58 µM; in test [6], 19.1 µM; in [10], 68 µM. Also, the TGI in [8] is 41.3 µM; in test [9], over 100 µM.
